From patent US7615628B2, “Imidazopyridine derivatives” (Riken, priority 2005, dated 2009)

Assays:
[1] = system: cultured human fibrosarcoma HT-1080 cells; assay: MTT assay, cell growth inhibitory activity on cancer cells; assay type: cell-based; conditions: for higher growth inhibitory activity on cancer cells than on normal cells: HT-1080 cancer cells versus WI-38 normal cells, from IC50 values; for IC50: Homo sapiens, MTT assay, 72 hours incubation at 37° C., HT-1080 cells, value ± standard deviation
Experimental: (§1) MTT assay was performed to examine two test compounds, i.e., 7-(2-thienyl)-3-(2-deoxy-1-β-D-ribofuranosyl)-3H-imidazo[4,5-b]pyridine (herein referred to as Compound IA) and 5-amino-7-(2-thienyl)-3-(2-deoxy-1-β-D-ribofuranosyl)-3H-imidazo[4,5-b]pyridine (herein referred to as Compound IB) for their cell growth inhibitory effect on cultured human fibrosarcoma HT-1080 cells and human fetal lung fibroblast (normal diploid fibroblast) WI-38 cells. These cells (1×10^4 cells/ml) were seeded in 96-well microplates (IWAKI) at 90 μl/well. After culturing at 37° C. for 3 to 4 hours, test compound solutions (10 μl each), which had been dissolved in PBS-5% DMSO and adjusted to various concentrations, were added and incubated at 37° C. for 72 hours. To the wells containing these solutions, a PBS solution of MTT (5 mg/ml) was added in 25 μl volumes and incubated at 37° C. for an additional 2 hours, followed by addition of a 50% DMF-20% SDS solution in 100 μl to each well. After incubation was continued at 37° C. for 16 hours, the absorbance at 570 nm was measured using a microplate reader to calculate % inhibition according to the following equation. % Inhibition=100×[1−(Abssample−Absbackground)/(Absnegative control−Absbackground)] [Expression 2]
(§2) Abssample: Absorbance in the presence of test compound
(§3) Absbackground: Absorbance in the absence of cells and test compound
Absnegative control: Absorbance in the absence of test compound
The concentration (IC50 μM) required for each test compound to cause 50% inhibition of cell growth was calculated from a concentration-inhibition curve. The IC50 values are shown in Table 1 below, along with their standard deviation.

[2] = system: human fetal lung fibroblast (normal diploid fibroblast) WI-38 cells; assay: MTT assay, cell growth inhibitory activity on normal cells; assay type: cell-based; conditions: 72 hours incubation at 37° C., WI-38 normal cells, value ± standard deviation
Experimental: as §1, with “To the wells containing these solutions, a PBS solution of MTT (5 mg/ml) was added in 25 μl volumes and incubated at 37° C. for an additional 2 hours, followed by addition of a 50% DMF-20% SDS solution in 100 μl to each well.” left out, “[Expression 2]” left out
as §2, §3
Absnegative control: Absorbance in the absence of test compound […]

IC50 [1]	SMILES	higher growth inhibitory activity on cancer cells than on normal cells [1]	IC50 [2]
62 µM	OC[C@H]1O[C@@H](n2cnc3c(-c4cccs4)ccnc32)C[C@H]1O [Compound IA, 7-(2-thienyl)-3-(2-deoxy-1-β-D-ribofuranosyl)-3H-imidazo[4,5-b]pyridine]	about 5 fold	290 ± 130 µM
34 µM	Nc1cc(-c2cccs2)c2ncn([C@H]3C[C@@H](O)[C@@H](CO)O3)c2n1 [Compound IB, 5-amino-7-(2-thienyl)-3-(2-deoxy-1-β-D-ribofuranosyl)-3H-imidazo[4,5-b]pyridine]	about 10 fold	330 ± 40 µM
